Experimental data from patent US20110144206A1, “USE OF A COX-2 INHIBITOR FOR THE TREATMENT OF A COX-2 DEPENDENT DISORDER IN A PATIENT NOT CARRYING HLA ALLELES ASSOCIATED WITH HEPATOTOXICITY” (priority 2008, published 2011).

Legend:
[1] = cited from earlier work
[2] = Liver enzyme (ALT/AST) elevation rates in TARGET study; assay type: in vivo, human
Description: Affected patients and matched controls are identified from a large 52-week international, multicenter, stratified, randomized, double-blind, double-dummy, parallel group clinical study. Most patients are administered one 400 mg dose of lumiracoxib each day. Patients are identified as affected cases based upon clinical measurements of elevated liver enzymes greater than or equal to 3 times ULN following administration of lumiracoxib. Patients are identified as control cases based upon clinical measurements of elevated liver enzymes less than 3 times ULN following administration of lumiracoxib, and control patients are matched to affected cases based upon clinical trial, country (where possible), sex, race and age (within 2 years, where possible). A total of 137 cases and 577 matched controls are used for analysis.
Kaplan-Meier incidence estimates are calculated for the DQA1*0102 carriers and non-carriers for >3xULN (FIG. 4) and >5xULN (FIG. 5) ALT/AST elevations.

[3] = TARGET, crude rate, whole treatment group
[4] = TARGET, crude rate, whole treatment group (Hy's law cases)
[5] = TARGET, patients with DNA and excluding DQA1*0102 patients, N ~3538 estimated

Structure (SMILES) | retention in inflamed tissues ([1]; inflamed tissues) | time to maximum plasma concentrations after dosing ([1]; oral) | elimination half-life from plasma ([1]; plasma) | Kaplan-Meier incidence estimates of >3xULN and >5xULN ALT/AST elevations ([2]; DQA1*0102 carriers) | Kaplan-Meier incidence estimates of >3xULN and >5xULN ALT/AST elevations ([2]; DQA1*0102 non-carriers) | Hy's law cases ([2]; TARGET, DQA1*0102-negative patients in the lumiracoxib arm) | ALT/AST >3x ULN [2, 3] | ALT/AST >5x ULN [2, 3] | ALT/AST >8x ULN [2, 3] | ALT/AST >3x ULN + bilirubin ≧2xULN [2, 4] | ULN ALT/AST rates compared to the lumiracoxib arm ([2]; TARGET, lumiracoxib DQA1*0102-negative patients) | ALT/AST >3x ULN [2, 5] | ALT/AST >3x ULN + bilirubin ≧2xULN [2, 5] | ALT/AST >5x ULN [2, 5] | ALT/AST >8x ULN [2, 5] | Hy's law cases ([2]; TARGET, per treatment arm)
Cc1ccc(Nc2c(F)cccc2Cl)c(CC(=O)O)c1 [Lumiracoxib, 2-[(2-chloro-6-fluorophenyl)amino]-5-methyl-benzeneacetic acid] | up to 24 hours | two | four | dramatic increase in the incidence after week 13 | do not show a sharp increase after week 13 | no cases | 236 (2.6) n (%) | 113 (1.3) n (%) | 56 (0.62) n (%) | 9 (0.10) n (%) | reduced considerably and are comparable to the other NSAIDs | 36 (1.0) n (%) | 0 (0) n (%) | 10 (0.3) n (%) | 3 (0.1) n (%) | Nine
CC(C)Cc1ccc(C(C)C(=O)O)cc1 (centres unmarked) [Ibuprofen] |  |  |  |  |  |  | 35 (0.8) n (%) | 13 (0.3) n (%) | 4 (0.1) n (%) | 2 (0.05) n (%) |  |  |  |  |  | 2 cases
COc1ccc2cc([C@H](C)C(=O)O)ccc2c1 [Naproxen] |  |  |  |  |  |  | 21 (0.5) n (%) | 6 (0.1) n (%) | 3 (0.1) n (%) | 2 (0.04) n (%) |  |  |  |  |  | 2 cases
